Data published in paper PMC4839570, “Novel Anthra[1,2-c][1,2,5]Thiadiazole-6,11-Diones as Promising Anticancer Lead Compounds: Biological Evaluation, Characterization & Molecular Targets Determination” (PLoS ONE, 2016).

Assays:
[1] = test system: Mycobacterium tuberculosis H37Rv; test: Antimycobacterial susceptibility, BACTEC MGIT 960 SIRE; format: cell-based
[2] = test system: normal cardiac myoblast H9c2 cells
Description: Briefly, 96 well microtiter plates were inoculated with the specified human cancer cell lines in RPMI 1640 medium containing 5% fetal bovine serum and 2 mM L-glutamine at the specified plating densities. The microtiter plates were incubated at 37°C, 5% CO2, and 100% relative humidity for 24 h. The test compounds were solubilized in DMSO at 400-fold the desired final maximum test concentration, diluted with complete medium containing gentamicin and added to the wells of the microtiter plates to achieve the final desired compound concentration, then incubated for an additional 48 h at the same incubation conditions. The media were removed, the cells were fixed then stained with sulforhodamine B and the unbound dye was removed by washing with acetic acid. The bound dye was resolubilized with trizma base and the absorbance at 515 nm was measured. Cells were stained with the WST-1 cell proliferation reagent instead of sulforhodamine B in some experiments and absorbance were measured at 440 nm. The three dose response parameters GI50, TGI and LC50 were calculated for each experimental compound as follows [48]: For values where Ti ≥ Tz the formula is [ (Ti-Tz) / (C-Tz)] x 100 For values where Ti < Tz the formula is [ (Ti-Tz) / Tz] x 100 Where Ti is the absorbance of the solubilized Sulforhodamine B (SRB) (representing the number of cells) of the five different concentrations of the compound used in the test, Tz is the absorbance of the SRB at time zero, and C is the absorbance of the SRB of the control growth.

MGH-U1R cell line = test system: MGH-U1R cell line; set-up: method as in PMID 25431950; conditions: cited from earlier work

Q: With NNC(=O)c1ccncc1 [Isoniazid, reference compound] as the molecule, how does the “Effect on M. tuberculosis H37Rv” value ([1]; 0.1 μg/mL) read?
A: Inhibition

Q: With COc1cccc2c1C(=O)c1c(O)c3c(c(O)c1C2=O)C[C@@](O)(C(=O)CO)C[C@@H]3O[C@H]1C[C@H](N)[C@H](O)[C@H](C)O1 [Doxorubicin, doxorubicin, reference compound] as the molecule, how does the “cytotoxicity towards normal cardiac myoblast H9c2 cells” value [2] read?
A: potent dose dependent cytotoxic effect

Q: And the “resistance of MGH-U1R cell line” value (MGH-U1R cell line)?
A: 40 fold

Q: With CC[C@@H](CO)NCCN[C@@H](CC)CO [Ethambutol, reference compound] as the molecule, how does the “Effect on M. tuberculosis H37Rv” value ([1]; 5 μg/mL) read?
A: Inhibition

Q: Which “Effect on M. tuberculosis H37Rv” value ([1]; 1 μg/mL) does the source give for [H]/N=C(/N)N[C@H]1[C@H](O)[C@@H](O)[C@H](O[C@@H]2O[C@@H](C)[C@](O)(C=O)[C@H]2O[C@@H]2O[C@@H](CO)[C@H](O)[C@@H](O)[C@@H]2NC)[C@@H](N/C(N)=N\[H])[C@@H]1O [Streptomycin, reference compound] here?
A: Inhibition

Q: For CO[C@H]1/C=C/O[C@@]2(C)Oc3c(C)c(O)c4c(O)c(c(/C=N/N5CCN(C)CC5)c(O)c4c3C2=O)NC(=O)/C(C)=C\C=C\[C@H](C)[C@H](O)[C@@H](C)[C@@H](O)[C@@H](C)[C@H](OC(C)=O)[C@@H]1C [Rifampin, reference compound], which “Effect on M. tuberculosis H37Rv” value ([1]; 1 μg/mL) is on record?
A: Inhibition
